Data reported in the NIST ThermoML archive (doi:10.1016/j.jct.2018.12.039).
Numbers after ± are expanded uncertainties.

Assay: xn = mol fraction of the nth substance listed
Settings: 100 kPa, Liquid; for speed of sound: Frequency=2 MHz, Linear variable-path acoustic interferometer; for mass density: Vibrating tube method

## Cc1ccc(O)cc1 [4-methylphenol] + CCO
303.15 K, x2 = 0
  speed of sound: 1473 ± 2.5 m/s
  mass density: 1026.47 ± 1.2 kg/m3
303.15 K, x2 = 0.1392
  speed of sound: 1435.7 ± 2.5 m/s
  mass density: 1006.2 ± 1.2 kg/m3
303.15 K, x2 = 0.2624
  speed of sound: 1392.4 ± 2.5 m/s
  mass density: 985.93 ± 1.2 kg/m3
303.15 K, x2 = 0.3722
  speed of sound: 1350.4 ± 2.5 m/s
  mass density: 965.59 ± 1.2 kg/m3
303.15 K, x2 = 0.4707
  speed of sound: 1311.9 ± 2.5 m/s
  mass density: 945.23 ± 1.2 kg/m3
303.15 K, x2 = 0.5595
  speed of sound: 1277.5 ± 2.4 m/s
  mass density: 924.86 ± 1.2 kg/m3
303.15 K, x2 = 0.6401
  speed of sound: 1247 ± 2.4 m/s
  mass density: 904.44 ± 1.2 kg/m3
303.15 K, x2 = 0.7134
  speed of sound: 1220.1 ± 2.4 m/s
  mass density: 883.97 ± 1.2 kg/m3
303.15 K, x2 = 0.7805
  speed of sound: 1196.3 ± 2.4 m/s
  mass density: 863.47 ± 1.2 kg/m3
303.15 K, x2 = 0.8421
  speed of sound: 1175.3 ± 2.4 m/s
  mass density: 842.93 ± 1.2 kg/m3
303.15 K, x2 = 0.8989
  speed of sound: 1156.8 ± 2.4 m/s
  mass density: 822.33 ± 1.2 kg/m3
303.15 K, x2 = 0.9514
  speed of sound: 1140.8 ± 2.4 m/s
  mass density: 801.71 ± 1.2 kg/m3
308.15 K, x2 = 0
  mass density: 1022.56 ± 1.2 kg/m3
308.15 K, x2 = 0.1392
  mass density: 1002.27 ± 1.2 kg/m3
308.15 K, x2 = 0.2624
  mass density: 981.96 ± 1.2 kg/m3
308.15 K, x2 = 0.3722
  mass density: 961.62 ± 1.2 kg/m3
308.15 K, x2 = 0.4707
  mass density: 941.23 ± 1.2 kg/m3
308.15 K, x2 = 0.5595
  mass density: 920.83 ± 1.2 kg/m3
308.15 K, x2 = 0.6401
  mass density: 900.38 ± 1.2 kg/m3
308.15 K, x2 = 0.7134
  mass density: 879.86 ± 1.2 kg/m3
308.15 K, x2 = 0.7805
  mass density: 859.3 ± 1.2 kg/m3
308.15 K, x2 = 0.8421
  mass density: 838.68 ± 1.2 kg/m3
308.15 K, x2 = 0.8989
  mass density: 818.01 ± 1.2 kg/m3
308.15 K, x2 = 0.9514
  mass density: 797.31 ± 1.2 kg/m3
313.15 K, x2 = 0
  speed of sound: 1440.2 ± 2.5 m/s
  mass density: 1018.64 ± 1.2 kg/m3
313.15 K, x2 = 0.1392
  speed of sound: 1402.3 ± 2.5 m/s
  mass density: 998.32 ± 1.2 kg/m3
313.15 K, x2 = 0.2624
  speed of sound: 1359.7 ± 2.5 m/s
  mass density: 977.97 ± 1.2 kg/m3
313.15 K, x2 = 0.3722
  speed of sound: 1318.2 ± 2.5 m/s
  mass density: 957.61 ± 1.2 kg/m3
313.15 K, x2 = 0.4707
  speed of sound: 1280 ± 2.4 m/s
  mass density: 937.2 ± 1.2 kg/m3
313.15 K, x2 = 0.5595
  speed of sound: 1245.8 ± 2.4 m/s
  mass density: 916.75 ± 1.2 kg/m3
313.15 K, x2 = 0.6401
  speed of sound: 1215.1 ± 2.4 m/s
  mass density: 896.25 ± 1.2 kg/m3
313.15 K, x2 = 0.7134
  speed of sound: 1188 ± 2.4 m/s
  mass density: 875.69 ± 1.2 kg/m3
313.15 K, x2 = 0.7805
  speed of sound: 1164 ± 2.4 m/s
  mass density: 855.09 ± 1.2 kg/m3
313.15 K, x2 = 0.8421
  speed of sound: 1142.8 ± 2.4 m/s
  mass density: 834.45 ± 1.2 kg/m3
313.15 K, x2 = 0.8989
  speed of sound: 1124.1 ± 2.4 m/s
  mass density: 813.74 ± 1.2 kg/m3
313.15 K, x2 = 0.9514
  speed of sound: 1107.9 ± 2.4 m/s
  mass density: 793.01 ± 1.2 kg/m3
318.15 K, x2 = 0
  mass density: 1014.68 ± 1.2 kg/m3
318.15 K, x2 = 0.1392
  mass density: 994.31 ± 1.2 kg/m3
318.15 K, x2 = 0.2624
  mass density: 973.9 ± 1.2 kg/m3
318.15 K, x2 = 0.3722
  mass density: 953.46 ± 1.2 kg/m3
318.15 K, x2 = 0.4707
  mass density: 932.96 ± 1.2 kg/m3
318.15 K, x2 = 0.5595
  mass density: 912.45 ± 1.2 kg/m3
318.15 K, x2 = 0.6401
  mass density: 891.89 ± 1.2 kg/m3
318.15 K, x2 = 0.7134
  mass density: 871.3 ± 1.2 kg/m3
318.15 K, x2 = 0.7805
  mass density: 850.66 ± 1.2 kg/m3
318.15 K, x2 = 0.8421
  mass density: 829.99 ± 1.2 kg/m3
318.15 K, x2 = 0.8989
  mass density: 809.25 ± 1.2 kg/m3
318.15 K, x2 = 0.9514
  mass density: 788.43 ± 1.2 kg/m3

## Cc1ccccc1O [2-methylphenol] + CCO
303.15 K, x2 = 0
  speed of sound: 1488.1 ± 2.5 m/s
  mass density: 1037.02 ± 1.2 kg/m3
303.15 K, x2 = 0.1387
  speed of sound: 1435.4 ± 2.5 m/s
  mass density: 1015.95 ± 1.2 kg/m3
303.15 K, x2 = 0.2617
  speed of sound: 1391.2 ± 2.5 m/s
  mass density: 994.82 ± 1.2 kg/m3
303.15 K, x2 = 0.3713
  speed of sound: 1351.2 ± 2.4 m/s
  mass density: 973.68 ± 1.2 kg/m3
303.15 K, x2 = 0.4698
  speed of sound: 1314.2 ± 2.4 m/s
  mass density: 952.47 ± 1.2 kg/m3
303.15 K, x2 = 0.5586
  speed of sound: 1280.2 ± 2.4 m/s
  mass density: 931.22 ± 1.2 kg/m3
303.15 K, x2 = 0.6392
  speed of sound: 1249.3 ± 2.4 m/s
  mass density: 909.96 ± 1.2 kg/m3
303.15 K, x2 = 0.7127
  speed of sound: 1221.5 ± 2.4 m/s
  mass density: 888.59 ± 1.2 kg/m3
303.15 K, x2 = 0.7799
  speed of sound: 1196.9 ± 2.4 m/s
  mass density: 867.19 ± 1.2 kg/m3
303.15 K, x2 = 0.8417
  speed of sound: 1175.2 ± 2.4 m/s
  mass density: 845.72 ± 1.2 kg/m3
303.15 K, x2 = 0.8986
  speed of sound: 1156.5 ± 2.4 m/s
  mass density: 824.22 ± 1.2 kg/m3
303.15 K, x2 = 0.951
  speed of sound: 1140.6 ± 2.4 m/s
  mass density: 802.69 ± 1.2 kg/m3
308.15 K, x2 = 0
  mass density: 1032.58 ± 1.2 kg/m3
308.15 K, x2 = 0.1387
  mass density: 1011.54 ± 1.2 kg/m3
308.15 K, x2 = 0.2617
  mass density: 990.39 ± 1.2 kg/m3
308.15 K, x2 = 0.3713
  mass density: 969.21 ± 1.2 kg/m3
308.15 K, x2 = 0.4698
  mass density: 947.97 ± 1.2 kg/m3
308.15 K, x2 = 0.5586
  mass density: 926.73 ± 1.2 kg/m3
308.15 K, x2 = 0.6392
  mass density: 905.45 ± 1.2 kg/m3
308.15 K, x2 = 0.7127
  mass density: 884.08 ± 1.2 kg/m3
308.15 K, x2 = 0.7799
  mass density: 862.71 ± 1.2 kg/m3
308.15 K, x2 = 0.8417
  mass density: 841.26 ± 1.2 kg/m3
308.15 K, x2 = 0.8986
  mass density: 819.77 ± 1.2 kg/m3
308.15 K, x2 = 0.951
  mass density: 798.22 ± 1.2 kg/m3
313.15 K, x2 = 0
  speed of sound: 1453 ± 2.5 m/s
  mass density: 1028.19 ± 1.2 kg/m3
313.15 K, x2 = 0.1387
  speed of sound: 1401.2 ± 2.5 m/s
  mass density: 1007.18 ± 1.2 kg/m3
313.15 K, x2 = 0.2617
  speed of sound: 1355.4 ± 2.4 m/s
  mass density: 986.02 ± 1.2 kg/m3
313.15 K, x2 = 0.3713
  speed of sound: 1314.6 ± 2.4 m/s
  mass density: 964.81 ± 1.2 kg/m3
313.15 K, x2 = 0.4698
  speed of sound: 1277.9 ± 2.4 m/s
  mass density: 943.57 ± 1.2 kg/m3
313.15 K, x2 = 0.5586
  speed of sound: 1245 ± 2.4 m/s
  mass density: 922.33 ± 1.2 kg/m3
313.15 K, x2 = 0.6392
  speed of sound: 1215.3 ± 2.4 m/s
  mass density: 901.08 ± 1.2 kg/m3
313.15 K, x2 = 0.7127
  speed of sound: 1188.6 ± 2.4 m/s
  mass density: 879.74 ± 1.2 kg/m3
313.15 K, x2 = 0.7799
  speed of sound: 1164.8 ± 2.4 m/s
  mass density: 858.37 ± 1.2 kg/m3
313.15 K, x2 = 0.8417
  speed of sound: 1143.6 ± 2.4 m/s
  mass density: 836.92 ± 1.2 kg/m3
313.15 K, x2 = 0.8986
  speed of sound: 1124.8 ± 2.4 m/s
  mass density: 815.43 ± 1.2 kg/m3
313.15 K, x2 = 0.951
  speed of sound: 1108.4 ± 2.4 m/s
  mass density: 793.89 ± 1.2 kg/m3
318.15 K, x2 = 0
  mass density: 1023.82 ± 1.2 kg/m3
318.15 K, x2 = 0.1387
  mass density: 1002.83 ± 1.2 kg/m3
318.15 K, x2 = 0.2617
  mass density: 981.62 ± 1.2 kg/m3
318.15 K, x2 = 0.3713
  mass density: 960.38 ± 1.2 kg/m3
318.15 K, x2 = 0.4698
  mass density: 939.1 ± 1.2 kg/m3
318.15 K, x2 = 0.5586
  mass density: 917.85 ± 1.2 kg/m3
318.15 K, x2 = 0.6392
  mass density: 896.59 ± 1.2 kg/m3
318.15 K, x2 = 0.7127
  mass density: 875.23 ± 1.2 kg/m3
318.15 K, x2 = 0.7799
  mass density: 853.88 ± 1.2 kg/m3
318.15 K, x2 = 0.8417
  mass density: 832.43 ± 1.2 kg/m3
318.15 K, x2 = 0.8986
  mass density: 810.91 ± 1.2 kg/m3
318.15 K, x2 = 0.951
  mass density: 789.33 ± 1.2 kg/m3
